Measurements reported in patent publication US20160046616A1, “NRF2 SMALL MOLECULE INHIBITORS FOR CANCER THERAPY” (THE JOHNS HOPKINS UNIVERSITY, priority 2013, published 2016).

Assays:
[1] = system: A549 NRF2-ARE-Fluc stable cell line; assay: A549 Nrf2 assay: NRF2-ARE firefly luciferase reporter gene assay; format: cell-based; settings: Homo sapiens, read-out: Potency of inhibition, A549
Source text: A549, the parental cell line, is a non-small-cell lung cancer (NSCLC) cell line with loss-of-function (LOF) Keap1 activity, thus NRF2 transcription factor constitutively translocates into the nucleus to activate the expression of downstream target genes of NRF2. A firefly luciferase reporter (Fluc) construct driven by a minimal promoter of NRF2-specific anti-oxidant responsive element (ARE) is stably expressed in the A549 cells. Compounds that reduce the translocation of NRF2 into the nucleus or prevent the interaction between NRF2 and ARE will lead to a decrease in luciferase activity.
The final concentration of DMSO was maintained at 0.46%. Control compounds Budesonide and Staurosporine were both added at a concentration of 2 mM and Budesonide also was added as a 1:10 titration, starting at 200 μM, to achieve dose-response. After an 18-24 hour incubation at 37° C., 95% humidity, and 5% CO2, 1 μL of 5× CellTiter-Fluor non-lytic cell viability assay reagent (Promega, Madison, Wis.) was added into the each well of the plates. The plates were then incubated for 30 minutes at room temperature before they were read on a ViewLux plate imager (Perkin Elmer, Waltham, Mass.) using an excitation wavelength of 405 nm and an emission wavelength of 525 nm.
A cell based reporter assay approach was used for the identification of agents that could inhibit Nrf2 mediated gene expression (FIG. 1). A549-ARE-luciferase cells express the luciferase gene driven by a minimal promoter and an enhancer element containing an NRF2 binding site (Antioxidant Response Element, ARE).
(§1) Representative compounds were assayed to assess the potency of inhibition in an A549 NRF2-ARE-Fluc stable cell line (A549 Nrf2 assay), in an H838 NRF2-ARE-Fluc stable cell line (H838 Nrf2 assay), and in an H1437 NRF2-ARE-Fluc stable cell line (H1437 Nrf2 assay) (see Table 3).

[2] = system: H1437 NRF2-ARE-Fluc stable cell line; assay: H1437 Nrf2 assay: NRF2-ARE firefly luciferase reporter gene assay; format: cell-based; settings: Homo sapiens, NCI-H1437, H1437 NRF2-ARE-Fluc stable cell line; read-out: Potency of inhibition, H1437
Source text: H1437 is another NSCLC cell line with LOF Keap1 activity and constitutive translocation of NRF2 into the nucleus. A firefly luciferase reporter construct driven by a minimal promoter of NRF2-specific ARE is stably expressed in the H1437 cells. This cell line was used as a confirmation assay to make sure hits identified from primary screening and that passed counterscreen assays worked in different cell types with a constitutively active NRF2 pathway (deficiency in Keap1).
This assay was very similar to the primary assay except that the cell line was changed. […] The final concentration of DMSO was maintained at 0.46%. Control compounds Budesonide and Staurosporine were both added at a concentration of 2 mM and Budesonide was also added as a 1:10 titration, starting at 200 μM, to achieve dose-response. After an 18-24 hour incubation at 37° C., 95% humidity, and 5% CO2, 1 μL of 5× CellTiter-Fluor non-lytic cell viability assay reagent (Promega, Madison Wis.) was added into the each well of the plates. The plates were then incubated for 30 minutes at room temperature before they were read on a ViewLux plate imager (Perkin Elmer, Waltham Mass.) using an excitation wavelength of 405 nm and an emission wavelength of 525 nm.
as §1

| Compound | IC50 [1] | IC50 [2] |
| --- | --- | --- |
| Cc1ccccc1C(=O)N1CCc2cc(N3CCC(NC(=O)Cc4ccccc4)C3)ccc21 (stereo not shown) [Compound 96] | 5 to 25 µM | 5 to 25 µM |
| COc1ccc(CC(=O)Nc2nc(-c3ccc4c(c3)CCN4C(=O)C3CC3)c(C)s2)cc1 [Compound 195] | < 5 µM | 5 to 25 µM |
| Cc1ccccc1C(=O)N1CCc2cc(-c3ccnc(NC(=O)Cc4ccccc4)n3)ccc21 [Compound 102] | 5 to 25 µM | > 25 µM |
| Cc1ccccc1C(=O)n1ccc2cc(-c3nc(NC(=O)Cc4ccc5c(c4)OCO5)sc3C)ccc21 [Compound 30] | 5 to 25 µM | 5 to 25 µM |
| Cc1ccccc1C(=O)n1ccc2cc(-c3cccc(NC(=O)Cc4ccccc4)n3)cnc21 [Compound 76] | 5 to 25 µM | > 25 µM |
| Cc1ccccc1C(=O)N1CCc2cc(-c3nc(NC(=O)CN4CCN(C(=O)C5CC5)CC4)sc3C)ccc21 [Compound 212] | < 5 µM | < 5 µM |
| COc1ccc(CC(=O)Nc2nc(-c3ccc4c(c3)CCN4C(=O)C3CC3C)c(C)s2)cc1 (stereo not shown) [Compound 208] | < 5 µM | < 5 µM |
| Cc1ccccc1C(=O)N1CCc2cc(-c3csc(NC(=O)Cc4ccc5c(c4)OCO5)n3)ccc21 [Compound 2] | 5 to 25 µM | 5 to 25 µM |
| Cc1csc2ncnc(N3CCN(S(=O)(=O)c4cccc(C(F)(F)F)c4)CC3)c12 [Compound 43] | 5 to 25 µM | < 5 µM |
| O=C(Nc1cc(Cc2ccccc2)ccn1)c1ccc(-c2cccc([N+](=O)[O-])c2)o1 [Compound 150] | < 5 µM | > 25 µM |
| CN(C1CCOCC1)S(=O)(=O)c1ccc(NC(=O)c2ccc(CN3CCc4ccccc4C3)cc2)cc1 [compound 167] | < 5 µM | 5 to 25 µM |
| O=C(Nc1ccc(S(=O)(=O)N2CCOCC2)cc1)c1ccc(CN2Cc3ccccc3C2)cc1 [Compound 204] | < 5 µM | < 5 µM |
| O=C(Nc1ncc(Cc2ccc(C(F)(F)F)cc2)s1)c1ccc(-c2cccnc2)o1 [Compound 27] | 5 to 25 µM | < 5 µM |
| O=C(Nc1cncc(Cc2ccccc2)c1)c1ccc(-c2cccc([N+](=O)[O-])c2)o1 [Compound 170] | 5 to 25 µM | 5 to 25 µM |
| O=C(Nc1ccc(S(=O)(=O)N2CCCC2)cc1)c1ccc(CN2CCc3ccccc3C2)cc1 [compound 145] | < 5 µM | > 25 µM |
| Cc1nc(C(=O)N2CCc3cc(-c4nc(NC(=O)Cc5ccc6c(c5)OCO6)sc4C)ccc32)c(C)o1 [Compound 157] | < 5 µM | < 5 µM |

| Compound | IC50 [1] | IC50 [2] |
| --- | --- | --- |
| CC(c1ccc(C(=O)Nc2ccc(S(=O)(=O)N3CCOCC3)cc2)cc1)N1CCc2ccccc2C1 (stereo not shown) [compound 226] | < 5 µM | < 5 µM |
| Cc1ccccc1C(=O)N1CCc2cc(N3CCCC(N)C3)ccc21 (stereo not shown) [Compound 94, (5-(3-aminopiperidin-1-yl)indolin-1-yl)(o-tolyl)methanone] | > 25 µM | > 25 µM |
| CN(C)[S+](=O)([O-])c1ccc(NC(=O)c2ccc(CN3CCc4ccccc4C3)cc2)cc1 [compound 148] | < 5 µM | > 25 µM |
| Cc1ccccc1C(=O)N1CCc2cc(-c3nc(NC(=O)Cc4ccccc4)sc3C)ccc21 [Compound 8] | < 5 µM | < 5 µM |
| O=C(Cc1ccccc1)Nc1cccc(-c2cnc3[nH]ccc3c2)n1 [Compound 88, N-(6-(1H-pyrrolo[2,3-b]pyridin-5-yl)pyridin-2-yl)-2-phenylacetamide] | 5 to 25 µM | > 25 µM |
| CC(=O)N1CCN(CC(=O)Nc2nc(-c3ccc4c(c3)CCN4C(=O)c3ccccc3C)c(C)s2)CC1 [Compound 227] | 5 to 25 µM | 5 to 25 µM |
| O=C(Nc1ccc(S(=O)(=O)N2CCOCC2c2ccccc2)cc1)c1ccc(CN2CCc3ccccc3C2)cc1 (stereo not shown) [compound 165] | < 5 µM | 5 to 25 µM |
| O=C(Nc1ccc(S(=O)(=O)N2CCOCC2)cc1)c1ccc(CN2CCCc3ccccc32)cc1 [compound 172] | < 5 µM | < 5 µM |
| O=C(Nc1ccc(Cl)c(S(=O)(=O)N2CCOCC2)c1)c1ccccc1 [compound 62] | 5 to 25 µM | 5 to 25 µM |
| Cc1ccccc1C(=O)N1CCc2cc(-c3cccc(N4CCOCC4)n3)ccc21 [Compound 65] | 5 to 25 µM | 5 to 25 µM |
| CCC(=O)N1c2ccc(S(=O)(=O)N3CCN(c4ccc([N+](=O)[O-])cc4)CC3)cc2CC1C (stereo not shown) [Compound 40] | < 5 µM | < 5 µM |
| O=C(Nc1ccc([S+](=O)([O-])O)cc1)c1ccc(CN2CCc3ccccc3C2)cc1 [compound 156] | > 25 µM | > 25 µM |
| Cc1ncoc1C(=O)N1CCc2cc(-c3nc(NC(=O)Cc4ccc5c(c4)OCO5)sc3C)ccc21 [Compound 181] | < 5 µM | > 25 µM |
| Cc1ccccc1C(=O)N1CCc2cc(-c3nc(NC(=O)Cc4ccc(OCCOCCOCCNC(=O)OC(C)(C)C)cc4)sc3C)ccc21 [Compound 236, tert-butyl (2-(2-(2-(4-(2-((5-methyl-4-(1-(2-methylbenzoyl)indolin-5-yl)thiazol-2-yl)amino)-2-oxoethyl)phenoxy)ethoxy)ethoxy)ethyl)carbamate] | < 5 µM | < 5 µM |
| Cc1onc(-c2ccccc2)c1C(=O)N1CCc2cc(-c3nc(NC(=O)Cc4ccc5c(c4)OCO5)sc3C)ccc21 [Compound 160] | > 25 µM | > 25 µM |
| O=C(Nc1ncc(Cc2cccc(F)c2)s1)c1ccn(-c2ccccc2)n1 [Compound 218] | 5 to 25 µM | < 5 µM |

Continued, values first:

| IC50 [1] | IC50 [2] | Compound |
| --- | --- | --- |
| 5 to 25 µM | 5 to 25 µM | Cc1ccccc1C(=O)N1CCc2cc(-n3cc(NC(=O)Cc4ccccc4)cn3)ccc21 [Compound 100] |
| < 5 µM | 5 to 25 µM | Cc1ccccc1C(=O)n1ncc2cc(-c3cccc(NC(=O)Cc4ccccc4)n3)ccc21 [Compound 95] |
| 5 to 25 µM | 5 to 25 µM | O=C(Nc1ccc(S(=O)(=O)N2CCOCC2)cc1)c1cccc(CN2CCc3ccccc3C2)c1 [Compound 211] |
| < 5 µM | > 25 µM | O=C(Nc1ncc(Cc2ccc(C(F)(F)F)cc2)s1)c1cn(-c2ccccc2)cn1 [Compound 164] |
| < 5 µM | 5 to 25 µM | CC(=O)N1CCc2cc(-c3nc(NC(=O)Cc4ccc5c(c4)OCO5)sc3C)ccc21 [Compound 21] |
| > 25 µM | > 25 µM | O=C(Cc1ccccc1)Nc1cncc(Cl)n1 [Compound 105, N-(6-chloropyrazin-2-yl)-2-phenylacetamide] |
| 5 to 25 µM | 5 to 25 µM | Cc1cc(C(=O)Nc2ncc(Cc3ccc(C(F)(F)F)cc3)s2)nn1CCN1CCOCC1 [Compound 194] |
| < 5 µM | < 5 µM | Cc1ccc(NC(=O)COc2ccccc2C(N)=O)cc1S(=O)(=O)N1CCCCCC1 [Compound 45] |
| < 5 µM | 5 to 25 µM | NC(=O)C1CCN(c2ccc(S(=O)(=O)N3CCC(Cc4ccccc4)CC3)cn2)CC1 [Compound 41] |
| < 5 µM | > 25 µM | COc1ccccc1C(=O)N1CCc2cc(-c3nc(NC(=O)Cc4ccc5c(c4)OCO5)sc3C)ccc21 [Compound 120] |
| < 5 µM | < 5 µM | Cc1ccccc1C(=O)N1CCc2cc(-c3nc(NC(=O)CC4CCN(C(=O)OC(C)(C)C)CC4)sc3C)ccc21 [Compound 60, tert-butyl 4-(2-((5-methyl-4-(1-(2-methylbenzoyl)indolin-5-yl)thiazol-2-yl)amino)-2-oxoethyl)piperidine-1-carboxylate] |
| < 5 µM | 5 to 25 µM | Cc1ccccc1S(=O)(=O)N1CCc2cc(-c3nc(NC(=O)Cc4cccc(Cl)c4)sc3C)ccc21 [Compound 125] |
| > 25 µM | 5 to 25 µM | Cc1ccccc1C(=O)N1CCc2cc(-c3nc(NC(=O)Cc4ccc(OCCOCCOCCNC(=O)CCCC[C@@H]5SC[C@@H]6NC(=O)N[C@@H]65)cc4)sc3C)ccc21 [Compound 241] |
| < 5 µM | < 5 µM | CN(C1COC1)S(=O)(=O)c1ccc(NC(=O)c2ccc(CN3CCc4ccccc4C3)cc2)cc1 [compound 173] |
| < 5 µM | > 25 µM | O=C(Nc1ccc(CN2CCOCC2)cc1)c1ccc(CN2CCc3ccccc3C2)cc1 [compound 163] |
